Results: patent US20110034692A1 (ZENTIVA, K.S., priority 2008, published 2011)
Read-outs that look alike come from different tables or passages of the source.

Key:
[1] = for content of (Z)-montelukast in isolated montelukast: after 3 hours reflux in toluene, precipitation with heptane
[2] = Stress test: methanolic solution of montelukast exposed to sunshine and air oxygen, HPLC monitoring; type: physicochemical
Method: The solution in glass apparatus was exposed to the influence of sunshine and air oxygen and samples were take repeatedly (at the times of 40 minutes, 1 day, 4 days and 14 days) (20 μl of the mixture further diluted by methanol to the volume of 1 ml) for HPLC analysis in the isocratic mode.
HPLC chromatograms were measured with the EliteLachrom device of Hitachi. For the analyses a column filled with the stationary phase of RP-18e was used, column temperature 20° C. As the mobile phase a mixture of acetonitrile (80%) and a 0.1 M aqueous solution of ammonium formate, treated with formic acid to pH 3.6 (20%), was used. The measurements were performed in the isocratic mode with the mobile phase flow rate of 1.5 ml/min. Spectrophotometric detection at the wavelength of 234 nm was used. For the preparation of the samples to be analyzed methanol was used as the solvent, 10-20 μl of the prepared solution were used for the injection.

[3] = Light exposure of methanolic montelukast solution to sunshine under inert argon, (Z)-isomer content by HPLC; type: physicochemical; conditions: methanol solution, argon atmosphere

Row | content of (Z)-montelukast in isolated montelukast [1] | content of (Z)-montelukast in isolated montelukast ([1]; listed as (Z)-isomer) | content of (Z)-montelukast, initial mixture of isomers ([1]; before reflux, toluene solution) [%] | content of (Z)-montelukast after 30 minutes of reflux ([1]; toluene, without light) [%] | content of (Z)-montelukast after 60 minutes of reflux ([1]; toluene, without light) [%] | rate of transformation of montelukast to (Z)-montelukast sulfoxide (XII) ([2]; light and oxygen induced degradation) | rate of transformation of montelukast (I) to (Z)-montelukast (V) ([2]; methanolic solution, sunshine and air oxygen) | sensitivity of the substance to light and air oxygen ([2]; methanolic solution, sunshine and air oxygen, HPLC isocratic) | content of the (Z)-isomer according to HPLC after exposure to sunshine ([3]; sunshine 1.5 hours (Example 7)) [%] | content of the (Z)-isomer according to HPLC after exposure to sunshine ([3]; sunshine 1.5 hours (Example 7), listed as Montelukast) | content of the (Z)-isomer according to HPLC after exposure to sunshine ([3]; sunshine 4 days (Example 9)) | SMILES
1 | below 0.1% | less than 0.1% | 11 | 5.6 | 2.7 |  |  |  |  |  |  | CC(C)(O)c1ccccc1CC[C@@H](SCC1(CC(=O)[O-])CC1)c1cccc(/C=C\c2ccc3ccc(Cl)cc3n2)c1.[Na+] [(Z)-montelukast, sodium salt of 1-[[[(1R)-1-[3-[(1Z)-2-(7-chloro-2-quinolinyl)ethenyl]phenyl]-3-[2-(1-hydroxy-1-methylethyl)phenyl]propyl]thio]methyl]cyclopropane acetic acid]
2 |  |  |  |  |  | relatively slow | unexpectedly fast | high sensitivity | 11 | approximately 11% | approx. 73% | CC(C)(O)c1ccccc1CC[C@@H](SCC1(CC(=O)[O-])CC1)c1cccc(/C=C/c2ccc3ccc(Cl)cc3n2)c1.[Na+] [montelukast, sodium salt of [R-(E)]-1-[[[1-[3-[2-(7-chloro-2-quinolinyl)ethenyl]phenyl]-3-[2-(1-hydroxy-1-methylethyl)phenyl]propyl]thio]-methyl]cyclopropane acetic acid]
